Among the test systems are NCI-H23 lung; SN12C renal; A498 renal; MOLT-4 leukemia; MDA-N; HL-60(TB) leukemia; HOP-92 NSCLC; MALME-3M melanoma; UO-31 renal; A549 NSCLC; SR leukemia.
Holding throughout (test): inhibition of tumour cell growth, NCI panel, 48 h

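The compound was tested at five concentrations on cells cultured in 96-well plates, with a 48-hour exposure period. GI50 = concentration required for 50% inhibition of growth. TGI: total growth inhibition.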

Turning to `CCCN(CCC)C(=O)c1c(N2CCN(C)CC2)c2cccnc2n2c(C)cnc12`, the TGI in the assay on NCI-H23 lung, in the assay on SN12C renal, in the assay with A498 renal, in the assay on MOLT-4 leukemia, in the assay with MDA-N and in the assay with HL-60(TB) leukemia was greater than 100 µM each time. Besides, the TGI in the assay on HOP-92 NSCLC, in the assay with MALME-3M melanoma, in the assay on UO-31 renal, in the assay with A549 NSCLC and with SR leukemia was greater than 100 µM each time.

As to `C=C1CCOC2(C(O)C(C)(O)CO)NC(=O)C1(O)NC2=O` (stereo not drawn), the TGI in the assay on NCI-H23 lung, with SN12C renal, with A498 renal, with MOLT-4 leukemia, with MDA-N and in the assay on HL-60(TB) leukemia was greater than 100 µM in each case. The TGI in the assay on HOP-92 NSCLC, in the assay on MALME-3M melanoma, in the assay with UO-31 renal, in the assay on A549 NSCLC and in the assay on SR leukemia was greater than 100 µM in each case.

Regarding `COc1cc(/C=C/C(=N\NC(N)=S)c2sc(NNC(C)=O)nc2C)ccc1O`, the TGI in the assay with NCI-H23 lung, with SN12C renal, in the assay on A498 renal, in the assay on MOLT-4 leukemia, in the assay with MDA-N and in the assay with HL-60(TB) leukemia was greater than 100 µM throughout. Also, the TGI in the assay with HOP-92 NSCLC, with MALME-3M melanoma, in the assay on UO-31 renal, in the assay on A549 NSCLC and with SR leukemia was greater than 100 µM throughout.

`CC(NNC(=O)c1ccncc1)c1cccc(C(F)(F)F)c1` (stereo not drawn): the TGI in the assay with NCI-H23 lung, in the assay on SN12C renal, in the assay with A498 renal, in the assay with MOLT-4 leukemia, with MDA-N and in the assay on HL-60(TB) leukemia was greater than 100 µM in each case. Also, the TGI in the assay with HOP-92 NSCLC, in the assay with MALME-3M melanoma, in the assay on UO-31 renal, in the assay with A549 NSCLC and in the assay with SR leukemia was greater than 100 µM each time.

As to `NC1=Nc2ccccc2Sc2cccc(F)c21`, the TGI with NCI-H23 lung was greater than 100 µM; in the assay on SN12C renal, greater than 100 µM; in the assay on A498 renal, greater than 100 µM; in the assay on MOLT-4 leukemia, greater than 100 µM; in the assay with MDA-N, greater than 100 µM; with HL-60(TB) leukemia, 88 µM. Further, the TGI in the assay on HOP-92 NSCLC, in the assay with MALME-3M melanoma, in the assay with UO-31 renal, in the assay with A549 NSCLC and in the assay on SR leukemia was greater than 100 µM throughout.

For `COc1ccc(-c2oc3cc(O)c(OC)c(O)c3c(=O)c2O)cc1`, the TGI was greater than 100 µM with NCI-H23 lung; greater than 75.2 µM in the assay on SN12C renal; 22.3 µM in the assay with A498 renal; 12.9 µM in the assay with MOLT-4 leukemia; greater than 100 µM in the assay with MDA-N; 9.19 µM with HL-60(TB) leukemia. Further, the TGI in the assay with HOP-92 NSCLC was greater than 72.3 µM; in the assay with MALME-3M melanoma, 88.2 µM; in the assay with UO-31 renal, greater than 61.3 µM; in the assay with A549 NSCLC, 18 µM; with SR leukemia, 20.8 µM.

Consider `CSc1ncc2c(n1)-c1ccccc1OC2`, for which the TGI in the assay on NCI-H23 lung was greater than 100 µM; in the assay on SN12C renal, greater than 100 µM; in the assay with A498 renal it was 73.6 µM; in the assay with MOLT-4 leukemia, greater than 100 µM; with MDA-N, greater than 100 µM; with HL-60(TB) leukemia, greater than 100 µM. Further, the TGI with HOP-92 NSCLC is 86.9 µM; with UO-31 renal, greater than 100 µM; with A549 NSCLC, greater than 100 µM; in the assay with SR leukemia it was greater than 100 µM.

For `CC1CN(CCO)CCN1c1ccccc1` (stereo not drawn), the TGI is greater than 100 µM in the assay with NCI-H23 lung; greater than 100 µM in the assay with SN12C renal; greater than 100 µM in the assay on A498 renal; greater than 100 µM in the assay with MOLT-4 leukemia; greater than 100 µM in the assay on MDA-N; 99 µM with HL-60(TB) leukemia. For the same compound, the TGI in the assay on HOP-92 NSCLC, in the assay on MALME-3M melanoma, in the assay on UO-31 renal, in the assay with A549 NSCLC and in the assay with SR leukemia was greater than 100 µM each time.

In the case of `COc1ccc([I+]c2ccc(OC)cc2)cc1`, the GI50 with NCI-H23 lung was 4.85 µM; in the assay on SN12C renal, 29.3 µM; with A498 renal, 5.52 µM; in the assay on MOLT-4 leukemia, 55.4 µM; in the assay on HL-60(TB) leukemia, 6.4 µM; in the assay with HOP-92 NSCLC it was 3.27 µM. Besides, the GI50 is 13.8 µM in the assay on MALME-3M melanoma, 5.14 µM in the assay on A549 NSCLC and 3.81 µM in the assay on SR leukemia. Moreover, the TGI in the assay on NCI-H23 lung was greater than 100 µM; in the assay on SN12C renal, greater than 100 µM; in the assay with A498 renal it was greater than 100 µM; in the assay on MOLT-4 leukemia, greater than 100 µM; in the assay with MDA-N it was greater than 38.3 µM; with HL-60(TB) leukemia, greater than 100 µM. The TGI with HOP-92 NSCLC, with MALME-3M melanoma, with UO-31 renal, with A549 NSCLC and in the assay on SR leukemia was greater than 100 µM in each case.

Consider `COc1ccc(-c2nnc3n(C)c4ccccc4n3c2=O)cc1`, for which the TGI in the assay on NCI-H23 lung, in the assay on SN12C renal, in the assay on A498 renal, in the assay with MOLT-4 leukemia, in the assay with MDA-N and with HL-60(TB) leukemia was greater than 100 µM each time. For the same compound, the TGI with HOP-92 NSCLC, in the assay with MALME-3M melanoma, in the assay with UO-31 renal, with A549 NSCLC and in the assay on SR leukemia was greater than 100 µM throughout.

`C=C(C)CCC1C=[N+]([O-])OC(C)(C)C1(C)C` (stereo not drawn): the TGI with SN12C renal is greater than 100 µM; in the assay on A498 renal it was greater than 100 µM; with MOLT-4 leukemia, greater than 100 µM; in the assay with MDA-N, greater than 100 µM; in the assay with HL-60(TB) leukemia, 73.8 µM; in the assay on HOP-92 NSCLC, greater than 100 µM. The TGI with UO-31 renal, with A549 NSCLC and in the assay on SR leukemia was greater than 100 µM each time.

`CCOC(=O)c1cc(C)nc2c1c(=O)n(-c1ccccc1)c(=O)n2CCCCN1CCN(c2ncccn2)CC1`: the TGI with NCI-H23 lung is greater than 100 µM; with SN12C renal, greater than 100 µM; in the assay on A498 renal, greater than 100 µM; with MOLT-4 leukemia, greater than 100 µM; in the assay with MDA-N, greater than 100 µM; with HL-60(TB) leukemia, 57.1 µM. For the same compound, the TGI in the assay with HOP-92 NSCLC, with MALME-3M melanoma, in the assay on UO-31 renal, in the assay on A549 NSCLC and in the assay on SR leukemia was greater than 100 µM in each case.

These data come from PubChem BioAssay (NCI).
